Earlier results, collected in patent publication US20060264455A1 (priority 2005, published 2006).

System: 6 Hz limbic seizures (corneal stimulation)
Details: established antiepileptic drugs; cited from earlier work

SMILES | Efficacy in the 6 Hz psychomotor seizure model
NC(=O)N1c2ccccc2C=Cc2ccccc21 [carbamazepine] | limited efficacy
Nc1nnc(-c2cccc(Cl)c2Cl)c(N)n1 [lamotrigine] | limited efficacy
O=C1NC(=O)C(c2ccccc2)(c2ccccc2)N1 [phenytoin] | limited efficacy
CC1(C)O[C@@H]2[C@@H](CO[C@@]3(COS(N)(=O)=O)OC(C)(C)O[C@@H]23)O1 [topiramate] | limited efficacy
